Assay results reported in patent US10597388B2, “Pyridazinone herbicides” (FMC CORPORATION, priority 2014, dated 2020).

Tests used:
Assay in all cases: Test D controlled growth environment herbicide test, pre- and postemergence
Format in all cases: in vivo
[1] = test system: bromegrass, downy (downy bromegrass, Bromus tectorum)
How it was run: (§1)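 Species sown in silt loam and sprayed preemergence, or grown in peat-based medium to 2–18 cm (1- to 4-leaf stage) and sprayed postemergence, with compounds in non-phytotoxic solvent plus surfactant. Visual injury scored versus controls after 14–21 d in a controlled environment, 0 (no effect) to 100 (complete control).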

[2] = test system: chamomile (scentless chamomile, Matricaria inodora)
How it was run: as §1

[3] = test system: deadnettle (henbit deadnettle, Lamium amplexicaule)
How it was run: as §1

[4] = test system: wheat, spring (spring wheat, Triticum aestivum)
How it was run: as §1

[5] = test system: field poppy (Papaver rhoeas)
How it was run: as §1

[6] = test system: barley, spring (spring barley, Hordeum vulgare)
How it was run: as §1

[7] = test system: foxtail, green (green foxtail, Setaria viridis)
How it was run: as §1

[8] = test system: canarygrass (Phalaris minor)
How it was run: as §1

[9] = test system: galium (catchweed bedstraw, Galium aparine)
How it was run: as §1

[10] = test system: lambsquarters (Chenopodium album)
How it was run: as §1

kochia (Kochia scoparia) = test system: kochia (Kochia scoparia)
How it was run: as §1

[11] = test system: oilseed rape (Brassica napus)
How it was run: as §1

[12] = test system: blackgrass (Alopecurus myosuroides)
How it was run: as §1

[13] = test system: chickweed (common chickweed, Stellaria media)
How it was run: as §1

[14] = Postemergence, 31 g ai/ha, scale 0 to 100 (0 no effect, 100 complete control)
[15] = Postemergence, 125 g ai/ha, visual rating on scale 0 (no effect) to 100 (complete control), 14 to 21 d
[16] = Postemergence, 250 g ai/ha, scale 0 to 100 (0 no effect, 100 complete control)
[17] = postemergence, 62 g ai/ha, scale 0 to 100, 0 no effect, 100 complete control
[18] = Preemergence, 62 g ai/ha, scale 0 to 100 (0 no effect, 100 complete control)
[19] = Preemergence, 125 g ai/ha, scale 0 to 100 (0 no effect, 100 complete control)
[20] = Preemergence, 250 g ai/ha, scale 0 to 100, 0 no effect, 100 complete control

Structure (SMILES): Cc1cc(C)c2ccccc2c1-c1c(O)c(C)nn(C)c1=O [Compound 21]
- Bromegrass, Downy plant response rating [1, 14]: 45
- Plant response rating, Bromegrass, Downy [1, 15]: 75
- Plant response rating, Bromegrass, Downy [1, 16]: 80
- Plant response rating, Bromegrass, Downy [1, 17]: 60
- Chamomile plant response rating [2, 14]: 90
- Plant response rating, Chamomile [2, 15]: 100
- Plant response rating, Chamomile [2, 16]: 100
- Plant response rating, Chamomile [2, 17]: 95
- Deadnettle plant response rating [3, 14]: 90
- Plant response rating, Deadnettle [3, 15]: 95
- Plant response rating, Deadnettle [3, 16]: 100
- Plant response rating, Deadnettle [3, 17]: 100
- Wheat, Spring plant response rating [4, 14]: 20
- Plant response rating, Wheat, Spring [4, 15]: 40
- Plant response rating, Wheat, Spring [4, 16]: 50
- Plant response rating, Wheat, Spring [4, 17]: 30
- Field Poppy plant response rating [5, 14]: 85
- Plant response rating, Field Poppy [5, 15]: 100
- Plant response rating, Field Poppy [5, 16]: 100
- Plant response rating, Field Poppy [5, 17]: 100
- Plant response rating, Barley, Spring [6, 14]: 0
- Plant response rating, Barley, Spring [6, 15]: 10
- Plant response rating, Barley, Spring [6, 16]: 30
- Plant response rating, Barley, Spring [6, 17]: 5
- Foxtail, Green plant response rating [7, 14]: 70
- Plant response rating, Foxtail, Green [7, 15]: 85
- Plant response rating, Foxtail, Green [7, 16]: 95
- Plant response rating, Foxtail, Green [7, 17]: 80
- Canarygrass plant response rating [8, 14]: 80
- Plant response rating, Canarygrass [8, 15]: 85
- Plant response rating, Canarygrass [8, 16]: 95
- Plant response rating, Canarygrass [8, 17]: 80
- Galium plant response rating [9, 14]: 100
- Plant response rating, Galium [9, 15]: 100
- Plant response rating, Galium [9, 16]: 100
- Plant response rating, Galium [9, 17]: 100
- Lambsquarters plant response rating [10, 14]: 80
- Plant response rating, Lambsquarters [10, 15]: 90
- Plant response rating, Lambsquarters [10, 16]: 95
- Plant response rating, Lambsquarters [10, 17]: 85
- Kochia plant response rating (kochia (Kochia scoparia); [14]): 35
- Plant response rating, Kochia (kochia (Kochia scoparia); [15]): 75
- Plant response rating, Kochia (kochia (Kochia scoparia); [16]): 85
- Plant response rating, Kochia (kochia (Kochia scoparia); [17]): 45
- Oilseed Rape plant response rating [11, 14]: 80
- Plant response rating, Oilseed Rape [11, 15]: 100
- Plant response rating, Oilseed Rape [11, 16]: 100
- Plant response rating, Oilseed Rape [11, 17]: 100
- Blackgrass plant response rating [12, 14]: 80
- Plant response rating, Blackgrass [12, 15]: 85
- Plant response rating, Blackgrass [12, 16]: 90
- Plant response rating, Blackgrass [12, 17]: 85
- Chickweed plant response rating [13, 14]: 90
- Plant response rating, Chickweed [13, 15]: 100
- Plant response rating, Chickweed [13, 16]: 100
- Plant response rating, Chickweed [13, 17]: 100

Structure (SMILES): Cc1nn(C)c(=O)c(-c2c(C)sc3ccc(Br)cc23)c1O [Compound 22]
- Bromegrass, Downy plant response rating [1, 14]: 10
- Plant response rating, Bromegrass, Downy [1, 15]: 25
- Plant response rating, Bromegrass, Downy [1, 16]: 25
- Plant response rating (scale of 0 to 100), Bromegrass, Downy ([1]; Preemergence, 31 g ai/ha): 0
- Plant response rating, Bromegrass, Downy [1, 18]: 5
- Plant response rating, Bromegrass, Downy [1, 19]: 25
- Plant response rating, Bromegrass, Downy [1, 20]: 80
- Plant response rating, Bromegrass, Downy [1, 17]: 10
- Chamomile plant response rating [2, 14]: 80
- Plant response rating, Chamomile [2, 15]: 85
- Plant response rating, Chamomile [2, 16]: 100
- Plant response rating (scale of 0 to 100), Chamomile ([2]; Preemergence, 31 g ai/ha): 95
- Plant response rating, Chamomile [2, 18]: 100
- Plant response rating, Chamomile [2, 19]: 100
- Plant response rating, Chamomile [2, 20]: 100
- Plant response rating, Chamomile [2, 17]: 80
- Deadnettle plant response rating [3, 14]: 10
- Plant response rating, Deadnettle [3, 15]: 45
- Plant response rating, Deadnettle [3, 16]: 70
- Plant response rating (scale of 0 to 100), Deadnettle ([3]; Preemergence, 31 g ai/ha): 0
- Plant response rating, Deadnettle [3, 18]: 0
- Plant response rating, Deadnettle [3, 19]: 15
- Plant response rating, Deadnettle [3, 17]: 10
- Wheat, Spring plant response rating [4, 14]: 5
- Plant response rating, Wheat, Spring [4, 15]: 10
- Plant response rating, Wheat, Spring [4, 16]: 15
- Plant response rating (scale of 0 to 100), Wheat, Spring ([4]; Preemergence, 31 g ai/ha): 0
- Plant response rating, Wheat, Spring [4, 18]: 0
- Plant response rating, Wheat, Spring [4, 19]: 10
- Plant response rating, Wheat, Spring [4, 20]: 25
- Plant response rating, Wheat, Spring [4, 17]: 10
- Field Poppy plant response rating [5, 14]: 75
- Plant response rating, Field Poppy [5, 15]: 100
- Plant response rating, Field Poppy [5, 16]: 100
- Plant response rating (scale of 0 to 100), Field Poppy ([5]; Preemergence, 31 g ai/ha): 0
- Plant response rating, Field Poppy [5, 18]: 0
- Plant response rating, Field Poppy [5, 19]: 100
- Plant response rating, Field Poppy [5, 20]: 100
- Plant response rating, Field Poppy [5, 17]: 85
- Plant response rating, Barley, Spring [6, 14]: 0
- Plant response rating, Barley, Spring [6, 15]: 15
- Plant response rating, Barley, Spring [6, 16]: 15
- Plant response rating (scale of 0 to 100), Barley, Spring ([6]; Preemergence, 31 g ai/ha): 0
- Plant response rating, Barley, Spring [6, 18]: 0
- Plant response rating, Barley, Spring [6, 19]: 0
- Barley, Spring plant response rating [6, 20]: 0
- Plant response rating, Barley, Spring [6, 17]: 0
- Foxtail, Green plant response rating [7, 14]: 15
- Plant response rating, Foxtail, Green [7, 15]: 70
- Plant response rating, Foxtail, Green [7, 16]: 75
- Plant response rating (scale of 0 to 100), Foxtail, Green ([7]; Preemergence, 31 g ai/ha): 0
- Plant response rating, Foxtail, Green [7, 18]: 0
- Plant response rating, Foxtail, Green [7, 19]: 0
- Plant response rating, Foxtail, Green [7, 20]: 20
- Plant response rating, Foxtail, Green [7, 17]: 45
- Canarygrass plant response rating [8, 14]: 20
- Plant response rating, Canarygrass [8, 15]: 40
- Plant response rating, Canarygrass [8, 16]: 65
- Plant response rating (scale of 0 to 100), Canarygrass ([8]; Preemergence, 31 g ai/ha): 25
- Plant response rating, Canarygrass [8, 18]: 35
- Plant response rating, Canarygrass [8, 19]: 85
- Plant response rating, Canarygrass [8, 20]: 90
- Plant response rating, Canarygrass [8, 17]: 35
- Galium plant response rating [9, 14]: 90
- Plant response rating, Galium [9, 15]: 98
- Plant response rating, Galium [9, 16]: 98
- Plant response rating (scale of 0 to 100), Galium ([9]; Preemergence, 31 g ai/ha): 10
- Plant response rating, Galium [9, 18]: 65
- Plant response rating, Galium [9, 19]: 75
- Plant response rating, Galium [9, 20]: 85
- Plant response rating, Galium [9, 17]: 90
- Lambsquarters plant response rating [10, 14]: 80
- Plant response rating, Lambsquarters [10, 15]: 95
- Plant response rating, Lambsquarters [10, 16]: 98
- Plant response rating (scale of 0 to 100), Lambsquarters ([10]; Preemergence, 31 g ai/ha): 100
- Plant response rating, Lambsquarters [10, 18]: 100
- Plant response rating, Lambsquarters [10, 19]: 100
- Plant response rating, Lambsquarters [10, 20]: 100
- Plant response rating, Lambsquarters [10, 17]: 85
- Kochia plant response rating (kochia (Kochia scoparia); [14]): 80
- Plant response rating, Kochia (kochia (Kochia scoparia); [15]): 100
- Plant response rating, Kochia (kochia (Kochia scoparia); [16]): 100
- Plant response rating (scale of 0 to 100), Kochia (kochia (Kochia scoparia); Preemergence, 31 g ai/ha): 35
- Plant response rating, Kochia (kochia (Kochia scoparia); [18]): 35
- Plant response rating, Kochia (kochia (Kochia scoparia); [19]): 50
- Plant response rating, Kochia (kochia (Kochia scoparia); [20]): 75
- Plant response rating, Kochia (kochia (Kochia scoparia); [17]): 95
- Oilseed Rape plant response rating [11, 14]: 30
- Plant response rating, Oilseed Rape [11, 15]: 95
- Plant response rating, Oilseed Rape [11, 16]: 100
- Plant response rating (scale of 0 to 100), Oilseed Rape ([11]; Preemergence, 31 g ai/ha): 0
- Plant response rating, Oilseed Rape [11, 18]: 0
- Plant response rating, Oilseed Rape [11, 19]: 0
- Plant response rating, Oilseed Rape [11, 20]: 75
- Plant response rating, Oilseed Rape [11, 17]: 30
- Blackgrass plant response rating [12, 14]: 15
- Plant response rating, Blackgrass [12, 15]: 45
- Plant response rating, Blackgrass [12, 16]: 70
- Plant response rating (scale of 0 to 100), Blackgrass ([12]; Preemergence, 31 g ai/ha): 45
- Plant response rating, Blackgrass [12, 18]: 45
- Plant response rating, Blackgrass [12, 19]: 55
- Blackgrass plant response rating [12, 20]: 75
- Plant response rating, Blackgrass [12, 17]: 20
- Chickweed plant response rating [13, 14]: 85
- Plant response rating, Chickweed [13, 15]: 98
- Plant response rating, Chickweed [13, 16]: 100
- Plant response rating (scale of 0 to 100), Chickweed ([13]; Preemergence, 31 g ai/ha): 95
- Plant response rating, Chickweed [13, 18]: 100
- Plant response rating, Chickweed [13, 19]: 100
- Plant response rating, Chickweed [13, 20]: 100
- Plant response rating, Chickweed [13, 17]: 95
